This is an account of results in patent US6916921B2, “Steroid compounds, use of these compounds for the preparation of meiosis-regulating medicaments and method for the preparation of these compounds” (Schering AG, priority 2001, dated 2005).

In experiment [1] the test system is cumulus enclosed mouse oocytes. Kind of experiment: Mouse oocyte assay: activation of meiosis in cumulus enclosed oocytes in Hx-medium. It counts as cell-based. As to conditions: CEO in Hx-medium, 22 hours culture. As for the experimental part: Testing of Meiosis-Activating Substances in the Mouse Oocyte Assay
Oocytes were obtained from immature female mice (C57BI/6J×DBA/2J F1-hybrids, Bomholtgaard, Denmark) weighing 13-16 grams, that were kept under controlled lighting and temperature. The mice received an intra-peritoneal injection of 0.2 ml gonadotropins (containing 10 IU PMSG, pregnant mare serum gonadotropin, Sigma Cat. No. G-4877) and 48 hours later the animals were killed by cervical dislocation.
Collection and Culture of Oocytes
The ovaries were dissected out and the oocytes were isolated in Hx-medium (see below) under a stereo microscope by manual rupture of the follicles using a pair of 27 gauge needles. Spherical, cumulus enclosed oocytes (CEO) displaying an intact germinal vesicle (GV) were placed in α-minimum essential medium (α-MEM without ribonucleosides, Gibco BRL, Cat. No. 22561) supplemented with 3 mM hypoxanthine (Sigma Cat. No. H-9377), 8 mg/ml Human Serum Albumin (HSA, State Serum Institute, Denmark), 0,23 mM pyruvate (Sigma, Cat. No. S-8636), 2 mM glutamine (Flow Cat. No. 16-801), 100 IU/ml penicillin and 100 μg/ml streptomycin (Flow Cat No. 16-700). This medium was designated Hx-medium.
The oocytes were rinsed three times in Hx-medium and cultured in 4-well multidishes (Nunclon, Denmark) in which each well contained 0.4 ml of Hx-medium and approx. 25 oocytes. One control (i.e. approx. 25 oocytes cultured in Hx-medium with no addition of test compound) was always run simultaneously with the test cultures, which were made with different concentrations of the compounds to be tested. The cultures were performed at 37° C. and 100% humidity with 5% CO2 in air. The culture time was 22 hours.
Oocytes arrested in meiosis are characterized by an intact nucleus with a prominent nucleolus, known as germinal vesicle (GV). Upon reinitiation of meiosis the nucleolus and the nuclear envelope disappear and this is characterized by a breakdown of the GV, which than is called germinal vesicle breakdown (GVB). Some hours later the oocyte complete a reductional division and elicit the first so called polar body (PB).
By the end of the culture period, the number of oocytes with germinal vesicle (GV) or germinal vesicle breakdown (GVB) and those with polar body (PB) was counted using a stereo microscope or an inverted microscope with differential interference contrast equipment. The percentage of oocytes with GVB per total number of oocytes and the percentage of oocytes with PB per total number of oocytes was calculated in the test cultures and compared to the control culture.

Experiment [2] relates to mouse preantral follicles. Put plainly: Mouse follicular culture system: activation of oocyte maturation. It counts as cell-based. As to conditions: for Activation [%] GVB / Follicles [n] GV / Follicles [n] GVB: added day 2 and 3, read at day 4. As to the method:
Testing of Meiosis-Activating Substances in the Mouse Follicular Culture System
Follicles were obtained from 19-21 day-old immature female mice (C57BI/6J×CBA/J), that were kept under controlled lighting and temperature.
Collection of Serum and Culture of Follicles
Animals were anesthetized with ether, and blood was collected by means of eye extraction. After clotting, blood was centrifuged for 15 min at 4000×g, and serum was collected and stored at −20° C. until use. Ovaries were removed and placed in Leibovitz L-15 medium (Gibco Cat. No. 41300) supplemented with 1 mmol glutamine l^−1, 3 mg BSA ml^−1, 5 μg human transferrin ml^−1 (without iron), 5 μg insulin ml^−1 (culture-grade chemicals, Sigma, St. Louis, Mo.) at 37 °C.
Preantral follicles with a diameter of 170-190 μm were isolated mechanically with two 27-gauge needles attached to 1 ml syringe. They were placed and washed thereafter (3 times) in 4-well culture plates (Nunclon, Denmark) in α-minimum essential medium (α-MEM; Gibco Cat. No. 11900) supplemented with 2 mmol glutamine l^−1, 10 μg transferrin ml^−1 and 10 μg insulin ml and with 3 mg BSA ml^−1.
Follicles of 170-190 μm with normal morphological appearence, i.e. a central spherical oocyte, high density of granulosa cells, and a theca layer enclosing the entire follicle, were selected and individually cultured in 96-well culture plate (Nunclon, Denmark) inserts with 40 μl α-MEM culture medium supplemented with 50 μl immature mouse serum ml^−1, 5 μg insulin ml^−1, 2 mmol glutamine l^−1, 10 μg human transferrin ml^−1 and 0.2 IU FSH (Gonal F, Serono, Solna, Sweden). Without any oil cover follicles were cultured in a humidified incubator gassed with 5% CO2 in air at 37° C.
Start of culture was defined as day 0. Culture medium was exchanged every other day. The diameter of the follicles was measured each day using ×100 magnification and a calibrated micrometer. In addition, the survival rate of the follicles was checked by evaluation of degeneration (darkening of the follicle) and bursting (loss of the oocyte). The culture time was 4 days.
At day 2 and day 3 of culture test compound or vehicle at a volume of 1.72 μl was added to the culture medium. Test compounds were dissolved in ethanol (vehicle).
Oocytes arrested in meiosis are characterized by an intact nucleus with a prominent nucleolus, known as germinal vesicle (GV). Upon reinitiation of meiosis the nucleolus and the nuclear envelope disappear and this is characterized by a breakdown of the GV, which then is called germinal vesicle breakdown (GVB).
At day 4, by the end of the culture period, follicles were checked for resumption of meiosis. The number of follicles having oocytes with germinal vesicle (GV) or germinal vesicle breakdown (GVB) was counted using a stereo microscope or an inverted microscope with differential interference contrast equipment. The percentage of follicles with GVB per total number of follicles was calculated in the test cultures and compared to the vehicle control culture.

A further experiment deals with rat oocytes. As to conditions: micromolar concentrations; rat CEO and DO arrested by IBMX; cited from earlier work.

Molecules are shown by their SMILES.

Regarding `C[C@H](CN1CCCCC1)[C@H]1CC=C2C3=C(CC[C@@]21C)[C@@]1(C)CC[C@H](O)C(C)(C)[C@@H]1CC3` [Example 1, (20S)-20-[(piperidin-1-yl)methyl]-4,4-dimethyl-5α-pregna-8,14-dien-3β-ol], in experiment [1] (0,1 μM), the “Activation [%] GVB + PB” value turned out to be 39%, the “Oocytes [n] GV” value came to 14 n, the “Oocytes [n] GVB” value came to 7 n and the “Oocytes [n] PB” value was found to be 2 n. Moreover, in experiment [1] (1 μM), the “Activation [%] GVB + PB” value is given as 75%, the “Oocytes [n] GV” value is recorded as 6 n, the “Oocytes [n] GVB” value stood at 12 n and the “Oocytes [n] PB” value is 6 n. Also, in experiment [1] (10 μM), the “Activation [%] GVB + PB” value was 95%, the “Oocytes [n] GV” value stood at 1 n, the “Oocytes [n] GVB” value was 14 n and the “Oocytes [n] PB” value is reported as 7 n. Also, in experiment [2] (1 μM), the “Activation [%] GVB” value was 78%, the “Follicles [n] GV” value came out at 2 n and the “Follicles [n] GVB” value stood at 7 n. Also, in experiment [2] (3 μM), the “Activation [%] GVB” value is recorded as 100%, the “Follicles [n] GV” value is 0 n and the “Follicles [n] GVB” value is 9 n. Also, in experiment [2] (10 μM), the “Activation [%] GVB” value was 100%, the “Follicles [n] GV” value was determined as 0 n and the “Follicles [n] GVB” value was found to be 8 n.

Regarding `CC(C)=CCC[C@@H](C)[C@H]1CC=C2C3=C(CC[C@@]21C)[C@@]1(C)CC[C@H](O)C(C)(C)[C@@H]1CC3` [FF-MAS, 4,4-dimethyl-5α-cholesta-8,14,24-trien-3β-ol, reference compound], in experiment [1] (10 μM), the “Activation [%] GVB + PB” value turned out to be 46%, the “Oocytes [n] GV” value is 13 n, the “Oocytes [n] GVB” value stood at 6 n and the “Oocytes [n] PB” value is recorded as 5 n. In addition, in experiment [2] (10 μM), the “Activation [%] GVB” value stood at 0%, the “Follicles [n] GV” value is listed as 9 n and the “Follicles [n] GVB” value is listed as 0 n. Also, the “induction of maturation / activation of meiosis in a follicle culture system” value in experiment [2] (follicle culture system) is reported as “not able to induce maturation”. The resumption of meiosis entry with rat oocytes was “able to induce resumption of meiosis in a dose-dependent manner”.
